From US20080171740A1, “Chemical Compounds” (SMITHKLINE BEECHAM CORPORATION, priority 2004, published 2008)
Like-named read-outs stand apart in the source and are kept apart here.

Assays:
Assay type in all cases: cell-based
[1] = Compound cytotoxicity in the absence of virus (CellTiter-Glo); conditions: human; non-infected HOS cultures, cell viability; read-out: Cytotox (pIC50) (converted)
Procedure: (§1) Compounds were profiled against two HIV-1 viruses, the M-tropic (CCR5 utilizing) Ba-L strain and the T-tropic (CXCR4 utilizing) IIIB strain. Both viruses were propagated in human peripheral blood lymphocytes. Compounds were tested for there ability to block infection of the HOS cell line (expressing hCXCR4/hCCR5/hCD4/pHIV-LTR-luciferase) by either HIV-1 Ba-L or HIV-1 IIIB. Compound cytotoxicity was also examined in the absence of virus addition.
(§2) HOS cells (expressing hCXCR4/hCCR5/hCD4/pHIV-LTR-luciferase) were harvested and diluted in Dulbeccos modified Eagles media supplemented with 2% FCS and non-essential amino acid to a concentration of 60,000 cells/ml. The cells were plated into 96-well plates (100 ul per well) and the plates were placed in a tissue culture incubator (37° C.; 5% CO2/95% air) for a period of 24 h.
(§3) Subsequently, 50 ul of the desired drug solution (4 times the final concentration) was added to each well and the plates were returned to the tissue culture incubator (37° C.; 5% CO2/95% air) for 1 h. Following this incubation 50 ul of diluted virus was added to each well (approximately 2 million RLU per well of virus). The plates were returned to the tissue culture incubator (37° C.; 5% CO2/95% air) and were incubated for a further 96 h.
(§4) Following this incubation the endpoint for the virally infected cultures was quantified following addition of Steady-Glo Luciferase assay system reagent (Promega, Madison, Wis.). Cell viability or non-infected cultures was measured using a CellTiter-Glo luminescent cell viability assay system (Promega, Madison, Wis.). All luminescent readouts are performed on a Topcount luminescence detector (Packard, Meridien, Conn.).

[2] = test system: HIV-1 gp160 (HXB2 strain) mediated fusion with HOS (hCXCR4/hCCR5/hCD4/pHIV-LTR-luciferase) cells; assay: Cell/cell fusion assay (HEK-293 expressing HIV-1 tat, rev, gp160 with HOS hCXCR4/hCCR5/hCD4/pHIV-LTR-luciferase cells); conditions: Homo sapiens, HEK293; luciferase readout after 24 h; read-out: Fusion assay (pIC50) (converted)
Excerpt: The complete coding sequences of HIV-1 tat (GenBank Accession No. X07861) and rev (GenBank Accession No. M34378) were cloned into pcDNA3.1 expression vectors containing G418 and hygromycin resistance genes, respectively. The complete coding sequence of the HIV-1 (HXB2 strain) gp160 envelope gene (nucleotide bases 6225-8795 of GenBank Accession No. K03455) was cloned into plasmid pCRII-TOPO. The three HIV genes were additionally inserted into the baculovirus shuttle vector, pFastBacMam1, under the transcriptional control of the CMV promoter. A construction of the pHIV-I LTR containing mutated NFkB sequences linked to the luciferase reporter gene was prepared by digesting pcDNA3.1, containing the G418 resistance gene, with Nru I and Bam HI to remove the CMV promoter. LTR-luc was then cloned into the Nru I/Bam HI sites of the plasmid vector. Plasmid preparations were performed after the plasmids were amplified in Escherichia coli strain DH5-alpha. The fidelity of the inserted sequences was confirmed by double-strand nucleotide sequencing using an ABI Prism Model 377 automated sequencer.
Recombinant BacMam baculoviruses were constructed from pFastBacMam shuttle plasmids by using the bacterial cell-based Bac-to-Bac system. Viruses were propagated in Sf9 (Spodoptera frugiperda) cells cultured in Hink's TNM-FH Insect media supplemented with 10% (v/v) fetal bovine serum and 0.1% (v/v) pluronic F-68 according to established protocols.
Human osteosarcoma (HOS) cells that naturally express human CXCR4 were transfected with human CCR5, human CD4 and the pHIV-LTR-luciferase plasmid using FuGENE 6 transfection reagent. Single cells were isolated and grown under selection condition in order to generate a stable HOS (hCXCR4/hCCR5/hCD4/pHIV-LTR-luciferase) clonal cell line. The cells were maintained in Dulbeccos modified Eagles media supplemented with 10% fetal calf serum (FCS), G418 (400 ug/ml), puromycin (1 ug/ml), mycophenolic acid (40 ug/ml), xanthine (250 ug/ml) and hypoxanthine (13.5 ug/ml) to maintain a selection pressure for cells expressing the LTR-luciferase, hCCR5 and hCD4, respectively. Human embryonic kidney (HEK-293) cells stably transfected to express the human macrophage scavenging receptor (Class A, type 1; GenBank Accession No. D90187), were maintained in DMEM/F-12 media (1:1) supplemented with 10% FCS and 1.5 ug/ml puromycin. The expression of this receptor by the HEK-293 cells enhances their ability to stick to tissue culture treated plasticware.
HEK-293 cells were harvested using enzyme-free cell dissociation buffer. The cells were resuspended in DMEM/F-12 media supplemented with 10% FCS and 1.5 ug/ml and counted. Tranductions were performed by direct addition of BacMam baculovirus containing insect cell media to cells. The cells were simultaneously transduced with BacMam baculovirus expressing HIV-1 tat, HIV-1 rev and HIV-1 gp160 (from the HXB2 HIV strain). Routinely an MOI of 10 of each virus was added to the media containing the cells. 2 mM butyric acid was also added to the cells at this stage to increase protein expression in transduced cells. The cells were subsequently mixed and seeded into a flask at 30 million cells per T225. The cells were incubated at 37° C., 5% CO2, 95% humidity for 24 h to allow for protein expression.
HEK and HOS cells were harvested in DMEM/F-12 media containing 2% FCS and DMEM media containing 2% FCS, respectively, with no selection agents added. Compounds were plated as 1 ul spots in 100% DMSO on a 96-well CulturPlate plates. HOS cells (50 ul) were added first to the wells, followed immediately by the HEK cells (50 ul). The final concentration of each cell type was 20,000 cells per well. Following these additions, the cells were returned to a tissue culture incubator (37° C.; 5% CO2/95% air) for an additional 24 h.
Following the 24 h incubation, total cellular luciferase activity was measured using the LucLite Plus assay kit (Packard, Meridien, Conn.). […]

CXCR4 receptor = target: T1, CXCR4 receptor (Homo sapiens, UniProt P61073); assay: Functional FLIPR assay (block of SDF-1 alpha induced [Ca2+]i change); conditions: HEK-293 cells with human CXCR4 BacMam and Gqi5 BacMam; antagonism of SDF-1 alpha; read-out: Functional assay (pIC50) (converted)
T1 construct: expressed in transfected cells; host or cells: HEK-293 cells (stably expressing human macrophage scavenging receptor) transduced with human CXCR4 BacMam and Gqi5 BacMam
T1 sequence (P61073 whole entry): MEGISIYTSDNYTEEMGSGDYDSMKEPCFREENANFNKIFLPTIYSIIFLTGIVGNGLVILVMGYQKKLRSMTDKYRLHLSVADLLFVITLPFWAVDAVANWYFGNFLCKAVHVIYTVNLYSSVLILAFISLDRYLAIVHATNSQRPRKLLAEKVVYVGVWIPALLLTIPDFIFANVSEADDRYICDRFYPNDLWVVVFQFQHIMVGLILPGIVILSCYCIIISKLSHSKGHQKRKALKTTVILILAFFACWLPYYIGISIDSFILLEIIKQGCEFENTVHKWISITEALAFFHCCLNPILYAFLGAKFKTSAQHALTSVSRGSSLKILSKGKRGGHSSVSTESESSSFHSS
Procedure: Human embryonic kidney (HEK-293) cells were maintained and harvested as described above. Cells were plated in 96-well, black clear bottom, poly-lysine coated plates at a concentration of 40,000 cells per well in a final volume of 100 ul containing human CXCR4 BacMam (MOI=25) and Gqi5 BacMam (MOI=12.5). The cells were incubated at 37° C., 5% CO2, 95% humidity for 24 h to allow for protein expression.
After the required incubation time the cells were washed once with 50 ul of fresh serum-free DMEM/F12 media containing probenicid. 50 ul of dye solution was then added to the cells (Calcium Plus Assay Kit Dye; Molecular Devices) was dissolved in 200 ml of the above probenicid/BSA containing media and incubated for 1 h. Cell plates were transferred to a Fluorometric Imaging Plate Reader (FLIPR). Upon addition the effect of the compounds on the change in [Ca^2+]i was examined to determine if the compounds were agonists or antagonists (ability to block SDF-1 alpha activity) at the CXCR4 receptor. IC50 values are determined and pKb values are calculated using the Leff and Dougall equation: KB=IC50/((2+([agonist]/EC50̂b)̂1/b -1) Where IC50 is that defined by the antagonist concentration-response curve [agonist] is the EC80 concentration of agonist used EC50 is that defined by the agonist concentration-response curve b is the slope of the agonist concentration-response curve.

[3] = test system: HIV-1 IIIB strain, T-tropic (CXCR4 utilizing); assay: HOS HIV-1 infectivity assay
Procedure: as §1, §2, §3, §4

[4] = Human immunodeficiency virus 1, IIIB, HOS, 96 h, read-out: HOS (3B) (μM)
[5] = Human immunodeficiency virus 1, IIIB, read-out: Activity Level
[6] = Human immunodeficiency virus 1, IIIB, HOS HIV anti-infectivity assay, strain not named in Table 2, read-out: Activity Level
[7] = Human immunodeficiency virus 1, HOS cells, HIV-1 IIIB, 96 h, luciferase, read-out: HOS (3B)

| SMILES | IC50 at 96 h [1] | IC50 [2] | IC50 (CXCR4 receptor) | IC50 [3, 4] | IC50 [3, 5] | IC50 [3, 6] | IC50 [3, 7] |
| --- | --- | --- | --- | --- | --- | --- | --- |
| Cc1cccn2cc(CN(CCCCN)C3CCCc4cccnc43)nc12 (stereo not drawn) [Example 2, N-[(8-Methylimidazo[1,2-a]pyridin-2-yl)methyl]-N-(5,6,7,8-tetrahydro-8-quinolinyl)-1,4-butanediamine] | > 100 µM | 0.324 µM | 0.0537 µM | 0.023 µM | < 0.1 µM | – | – |
| NCCCCN(Cc1cn2c(N)cccc2n1)C1CCCc2cccnc21 (stereo not drawn) [Example 26, N-[(5-Aminoimidazo[1,2-a]pyridin-2-yl)methyl]-N-(5,6,7,8-tetrahydro-8-quinolinyl)-1,4-butanediamine] | > 100 µM | 0.0398 µM | 0.0115 µM | – | – | < 0.1 µM | 0.014 µM |
| Cc1cc(C)n2cc(CN(CCCCN)C3CCCc4cccnc43)nc2c1 (stereo not drawn) [Example 15, N-[(5,7-Dimethylimidazo[1,2-a]pyridin-2-yl)methyl]-N-(5,6,7,8-tetrahydro-8-quinolinyl)-1,4-butanediamine] | > 100 µM | 0.316 µM | 0.0933 µM | – | – | 0.1 to 0.5 µM | 0.112 µM |
| NCCCCN(Cc1cn2ccccc2n1)C1CCCc2cccnc21 (stereo not drawn) [Example 1, N-(Imidazo[1,2-a]pyridin-2-ylmethyl)-N-(5,6,7,8-tetrahydro-8-quinolinyl)-1,4-butanediamine] | > 100 µM | 0.0794 µM | 0.0339 µM | – | – | < 0.1 µM | 0.042 µM |
| Cc1c(Br)ccc2nc(CN(CCCCN)C3CCCc4cccnc43)cn12 (stereo not drawn) [Example 18, N-[(6-Bromo-5-methylimidazo[1,2-a]pyridin-2-yl)methyl]-N-(5,6,7,8-tetrahydro-8-quinolinyl)-1,4-butanediamine] | > 100 µM | 0.155 µM | 0.0309 µM | – | – | < 0.1 µM | 0.088 µM |
| NCCCCN(Cc1cn2cc(C(F)(F)F)cc(Cl)c2n1)C1CCCc2cccnc21 (stereo not drawn) [Example 17, N-{[8-Chloro-6-(trifluoromethyl)imidazo[1,2-a]pyridin-2-yl]methyl}-N-(5,6,7,8-tetrahydro-8-quinolinyl)-1,4-butanediamine] | > 100 µM | 3.89 µM | 0.347 µM | 0.3 µM | 0.1 to 0.5 µM | – | – |
| NCCCCN(Cc1cn2c(N3CCOCC3)cccc2n1)C1CCCc2cccnc21 (stereo not drawn) [Example 23, N-{[5-(4-Morpholinyl)imidazo[1,2-a]pyridin-2-yl]methyl}-N-(5,6,7,8-tetrahydro-8-quinolinyl)-1,4-butanediamine] | > 100 µM | 0.324 µM | 0.158 µM | – | – | < 0.1 µM | 0.077 µM |
| Cc1ccc2nc(CN(CCCCN)C3CCCc4cccnc43)cn2c1 (stereo not drawn) [Example 4, N-[(6-Methylimidazo[1,2-a]pyridin-2-yl)methyl]-N-(5,6,7,8-tetrahydro-8-quinolinyl)-1,4-butanediamine] | > 100 µM | 0.0977 µM | 0.0525 µM | – | – | < 0.1 µM | 0.057 µM |
| NCCCCN(Cc1cn2c(N3CCNCC3)cccc2n1)C1CCCc2cccnc21 (stereo not drawn) [Example 22, N-{[5-(1-piperazinyl)imidazo[1,2-a]pyridin-2-yl]methyl}-N-(5,6,7,8-tetrahydro-8-quinolinyl)-1,4-butanediamine] | > 100 µM | 0.00282 µM | 0.00288 µM | – | – | < 0.1 µM | 0.0022 µM |
| NCCCCN(Cc1cn2c(Cl)cccc2n1)C1CCCc2cccnc21 (stereo not drawn) [Example 13, N-[(5-Chloroimidazo[1,2-a]pyridin-2-yl)methyl]-N-(5,6,7,8-tetrahydro-8-quinolinyl)-1,4-butanediamine] | > 100 µM | 0.0912 µM | 0.0407 µM | – | – | < 0.1 µM | 0.025 µM |
| NCCCCN(Cc1cn2c(N3CCCC3)cccc2n1)C1CCCc2cccnc21 (stereo not drawn) [Example 21, N-{[5-(1-Pyrrolidinyl)imidazo[1,2-a]pyridin-2-yl]methyl}-N-(5,6,7,8-tetrahydro-8-quinolinyl)-1,4-butanediamine] | > 100 µM | 0.102 µM | 0.02 µM | 0.038 µM | < 0.1 µM | – | – |
| CN1CCN(c2cccc3nc(CN(CCCCN)C4CCCc5cccnc54)cn23)CC1 (stereo not drawn) [Example 24, N-{[5-(4-Methyl-1-piperazinyl)imidazo[1,2-a]pyridin-2-yl]methyl}-N-(5,6,7,8-tetrahydro-8-quinolinyl)-1,4-butanediamine] | > 100 µM | 0.0049 µM | 0.0417 µM | – | – | < 0.1 µM | 0.0036 µM |
